Reference: patent publication US9993494B2, “Compositions and methods for treating fibrotic disease” (eFFECTOR Therapeutics, Inc., priority 2014, dated 2018)

Tests used:
[1] = system: normal human lung fibroblasts; experiment: Western blot of α-smooth muscle actin (α-SMA) in TGFβ-treated fibroblasts; type: cell-based; conditions: fibroblasts treated with TGFβ, 24 hours, western blot
Method: (§1) Briefly, normal human lung fibroblasts (Lonza #CC-2512; cell passage numbers 2 through 5 were used for all experiments) were seeded (Day 0) and cultured in Dulbecco's modified Eagle medium (DMEM) supplemented with 10% fetal bovine serum (FBS), penicillin, streptomycin and glutamax (Invitrogen) at 37° C. in a humidified incubator with 5% CO2 overnight. On Day 1, cells were harvested, washed with phosphate buffered saline (PBS), and then incubated for 48 hours in fresh serum-free DMEM supplemented with penicillin, streptomycin, and glutamax.
(§2) After this 24 hour incubation, procollagen type 1 levels were measured by collecting culture media, centrifuging to pellet cellular debris, and stored at −80° C. Procollagen Type 1 C-Peptide (PIPC) was quantified using the (PIP) EIA kit (Clontech, Cat. No. MK101) according to manufacturer's instructions. The TGFβ-treated fibroblasts of this example were examined by ribosomal profiling (about 6×10^6 cells/10 cm plate) and western blot analysis (about 1×10^6 cells/well of a 6-well plate).
TGFβ-dependent activation of the PI3K/Akt/mTOR and ERK pathways were also examined by western blot analysis (about 1×10^6 cells/well from a 6-well plate). Briefly, cells were washed with PBS and lysed in 1× cell lysis buffer (Cell Signaling Technology, Inc., Danvers, Mass.) for 15 minutes at 4° C. Lysates were briefly sonicated, clarified by centrifugation for 15 minutes at 14,000 rpm, and then supernatants were collected. Protein concentration in the soluble fraction was determined by BCA protein assay (Thermo Scientific, Rockford, Ill.). Samples of protein (20 μg) were resolved on 4-20% Bis-Tris gradient gel (Invitrogen, Carlsbad, Calif.) and transferred to nitrocellulose membrane. The resulting blots were blocked for 1 hour at room temperature with Odyssey blocking solution (LI-COR) and then incubated with primary antibodies at 4° C. overnight. The following day, each blot was washed three times for 10 minutes in TBST, and then incubated with goat anti-rabbit fluorescent conjugated secondary antibody (IRDye 800 CW at 1:20,000; LI-COR) for 1 hour at room temperature. The blots were washed and scanned, and then specific proteins were detected by using the LI-COR Odyssey infrared imager. The following antibodies were used at 1:1000 dilution: anti-α-actin (Sigma #A2547), anti-phospho-4EBP(Ser65), anti-phospho-rpS6(Ser235/236)(#4858), anti-phospho-ERK1/2(Thr202/Tyr204)(#4370), anti-phospho-p70S6K(Thr421/Ser424)(#9204), anti-phospho-pAKT(Ser473), anti-phospho-MNK(Thr197/202), and anti-β-actin (#4970). Unless otherwise indicated, the antibodies were from Cell Signaling Technology, Inc. (Danvers, Mass.).
as §1, with “(Lonza;” for “(Lonza #CC-2512;”, “CO2 conditions” for “CO2”, “glutamax. On Day 3, cells were harvested, resuspended in fresh serum-free DMEM containing silvestrol (1, 5, 10, 75, 100, 500, or 1000 nM) and 10 ng/ml TGFβ, and cultured for 24 hours. Controls included untreated cells and cells treated with only TGFβ.” for “glutamax.”
as §2, with “kit (Clontech)” for “kit (Clontech, Cat. No. MK101)”, “example are” for “example were”

[2] = system: normal human lung fibroblasts; experiment: Procollagen Type 1 C-Peptide (PIPC) EIA in culture media of TGFβ-treated fibroblasts; type: cell-based; conditions: fibroblasts treated with TGFβ, 24 hours, procollagen ELISA
Method: as §1, §2
as §1, with “(Lonza;” for “(Lonza #CC-2512;”, “CO2 conditions” for “CO2”, “glutamax. On Day 3, cells were harvested, resuspended in fresh serum-free DMEM containing silvestrol (1, 5, 10, 75, 100, 500, or 1000 nM) and 10 ng/ml TGFβ, and cultured for 24 hours. Controls included untreated cells and cells treated with only TGFβ.” for “glutamax.”
as §2, with “kit (Clontech)” for “kit (Clontech, Cat. No. MK101)”, “example are” for “example were”
The levels of α-SMA and procollagen type 1, markers of fibroblast transdifferentiation into myofibroblasts and a surrogate for fibrotic disease progression, were measured after a 24 hour incubation of fibroblasts in the presence or absence of TGFβ sieIF4A1 or siCont. The knockdown efficiency was determined by quantitating the eIF4A mRNA level by qPCR (data not shown) and assessing the protein level by western analysis (see FIG. 11).

Structure (SMILES) | % Renormalization α-SMA [1] | % Renormalization Collagen [2]
CC(C)CCN1c2nc(Nc3cc(F)c(O)c(F)c3)ncc2N(C)C(=O)C1C (stereo not drawn) [BI-D1870, 2-[(3,5-Difluoro-4-hydroxyphenyl)amino]-7,8-dihydro-5,7-dimethyl-8-(3-methylbutyl)-6(5H)-pteridone] | ++ (++ = 30-60%) | +++ (+++ = >60%)
N=C(N)NCCCCCCCN [GC7, N1-guanyl-1,7-diaminoheptane] | + (+ = 0-30%) | + (+ = 0-30%)
COC(=O)c1ccc2c(c1)NC(=O)/C2=C(\Nc1ccc(N(C)C(=O)CN2CCN(C)CC2)cc1)c1ccccc1 [Nintedanib] | +++ (+++ = >60%) | +++ (+++ = >60%)
